Structures can show the parent of a compound that is named as a salt. Where two headings read alike, the source gives them in different places. Residues, ends and D or L forms follow the SMILES beside them.
Tests used:
[1] = Dissolution in water (time to complete dissolution); type: physicochemical
Experimental: N-[N-(3,3-dimethylbutyl)-L-α-aspartyl]-L-phenylalanine 1-methyl ester (25.0 g) was slurried in 150 ml of water. To the stirred slurry was slowly added concentrated hydrochloric acid (5.5 ml, 0.0661 mol). After approximately 10 minutes all the solid had dissolved. The clear solution was then freeze dried. […] Yield: 27.34 g white solid (99.7%). The hydrochloride salt (1 g) dissolved in water (100 ml) in 70 seconds. 1H NMR (CD3 CN) δ 0.89 (s, 9H), 1.64 (m, 2H), 3.01 (m, 6H), 3.68 (s, 3H), 4.16 (t, 1H), 4.67 (m, 1H), 7.26 (m, 5H), 8.27 (d, 1H). Anal. Calcd for C20 H31 ClN2 O5.H2 O: C, 55.48; H, 7.69; N, 6.47; Cl, 8.19. Found: C, 55.95; H, 7.59; N, 6.55; Cl, 8.35.
N-[N-(3,3-dimethylbutyl)-L-α-aspartyl]-L-phenylalanine 1-methyl ester (10.0 g) was slurried in 100 ml of water. An equimolar amount of 85% phosphoric acid solution was added. After all the solid dissolved, the solution was freeze dried. […] Yield 12.33 g white solid (98.0%). The phosphate salt (0.1 g) dissolved in water (100 ml) in less than 30 seconds (visual observation) and about 90 seconds by spectrophotometric analysis. 1H NMR (CD3 CN) δ 0.89 (s, 9H), 1.55 (m, 2H), 2.84 (m, 5H), 3.19 (m, 1H), 3.67 (s, 3H), 4.06 (t, 1H), 4.70 (m, 1H), 7.27 (m, 5H), 8.03 (d, 1H). Anal. Calcd for C20 H33 N2 O9 P.H2 O: C, 48.58; H, 7.15; N, 5.67; P, 6.26. Found: C, 48.15: H, 7.08; N, 5.60; P, 6.57.
N-[N-(3,3-dimethylbutyl)-L-α-aspartyl]-L-phenylalanine 1-methyl ester (25.0 g) was slurried in 100 ml of water and concentrated sulfuric acid (3.67 ml) was added slowly. After several minutes of stirring some material remained undissolved. Therefore, 75 ml of acetone was added. The resulting clear solution was stirred for 30 minutes, then the acetone was removed under reduced pressure on a rotary evaporator. The contents of the flask remained a clear solution. […] Yield: 30.04 g (95%). The sulfate salt (0.1 g) dissolved in water (100 ml) in less than 20 seconds (visual observation). 1H NMR (CD3 CN) δ 0.89 (s,9H), 1.57 (m, 2H), 2.91 (m, 5H), 3.20 (m, 1H), 3.68 (s, 3H), 4.15 (t, 1H), 4.72 (m, 1H), 7.27 (m, 5H), 7.68 (d, 1H). Anal. Calcd for C20 H32 N2 O9 S.H2 O: C, 48.56; H, 6.94; N, 5.66; S, 6.48. Found C, 48.93; H, 7.02; N, 5.78; S, 6.50.
N-[N-(3,3-dimethylbutyl)-L-α-aspartyl]-L-phenylalanine 1-methyl ester (5.00 g) was dissolved in 75 ml of acetone. Citric acid (2.53 g) was dissolved in 50 ml of water, and the acetone solution was added. This formed a clear, colorless solution that was stirred for 1 hour. The acetone was evaporated under reduced pressure. The resulting slurry was freeze dried to obtain 7.5 g of a white solid. The citrate salt (0.1 g) dissolved in water (100 ml) in 90 seconds (visual observation). δ (CD3 CN) 0.89 (s, 9H), 1.53 (m, 2H), 2.83 (m, 10H), 3.20 (m, 1H), 3.67 (s, 3H), 4.04 (t, 1H), 4.21 (m, 1H), 7.27 (m, 5H), 7.79 (d, 1H). Anal. Calcd for C26 H38 N2 O12.H2 O: C, 53.05; H, 6.86; N, 4.76. Found: C, 53.10; H, 6.88; N, 4.41.
N-[N-(3,3-dimethylbutyl) -L-α-aspartyl]-L-phenylalanine 1-methyl ester (0.05-0.1 g) was dissolved in water (100 mL). The compound completely dissolved in 5-7 minutes (visual observation). The dissolution of 1.0 g of N-[N-(3,3-dimethylbutyl)-L-α-aspartyl]-L-phenylalanine 1-methyl ester in 100 mL of water required approximately 45 minutes.

[2] = cited from earlier work
[3] = amino group (primary in aspartame, secondary in neotame); cited from earlier work
[4] = on a weight basis, cited from earlier work
[5] = compared with aspartame; cited from earlier work
[6] = compared with aspartame, under some pH conditions; cited from earlier work
[7] = Aqueous solubility compared to the starting material / water solubility; type: physicochemical; settings: starting material = neotame
[8] = 0.1 g in water (100 ml), visual observation

COC(=O)[C@H](Cc1ccccc1)NC(=O)[C@H](CC(=O)O)NCCC(C)(C)C [N-[N-(3,3-dimethylbutyl)-L-α-aspartyl]-L-phenylalanine 1-methyl ester]
dissolution time in water, completely dissolved (visual observation) ([1]; 0.05-0.1 g in water (100 mL), visual observation): 5 to 7 min
dissolution time in water ([1]; 1.0 g in 100 mL of water): approximately 45 minutes
solubility in water ([2]; compared with aspartame): much lower solubility in water
solubility in water ([2]; in words, no comparator): sparingly soluble in water
pKa [3]: 8.1
sweetening potency relative to aspartame ([4]; times that of aspartame): at least 50 times
sweetening potency relative to sucrose ([4]; times that of sucrose): about 10,000 times
solubility in organic solvents [5]: much higher solubility in organic solvents than aspartame
stability [6]: higher stability than aspartame under some pH conditions

COC(=O)[C@H](Cc1ccccc1)NC(=O)[C@@H](N)CC(=O)O [aspartame] (H-Asp-Phe-OMe)
pKa [3]: 7.7

COC(=O)[C@H](Cc1ccccc1)NC(=O)[C@H](CC(=O)O)NCCC(C)(C)C [citrate salt, Citrate Salt of N-[N-(3,3-dimethylbutyl)-L-α-aspartyl]-L-phenylalanine 1-methyl Ester]
dissolution time in water (visual observation) [1, 8]: 90 s

COC(=O)[C@H](Cc1ccccc1)NC(=O)[C@H](CC(=O)O)NCCC(C)(C)C [hydrochloride salt, Hydrochloride Salt of N-[N-(3,3-dimethylbutyl)-L-α-aspartyl]-L-phenylalanine 1-methyl Ester]
dissolution time in water ([1]; 1 g in water (100 ml)): 70 s
aqueous solubility compared to the starting material [7]: greatly increased aqueous solubility compared to the starting material

COC(=O)[C@H](Cc1ccccc1)NC(=O)[C@H](CC(=O)O)NCCC(C)(C)C [phosphate salt, Phosphate Salt of N-[N-(3,3-dimethylbutyl)-L-α-aspartyl]-L-phenylalanine 1-methyl Ester]
dissolution time in water by spectrophotometric analysis ([1]; 0.1 g in water (100 ml), spectrophotometric analysis): about 90 seconds
dissolution time in water (visual observation) [1, 8]: less than 30 seconds
aqueous solubility compared to the starting material [7]: greatly increased aqueous solubility compared to the starting material

COC(=O)[C@H](Cc1ccccc1)NC(=O)[C@H](CC(=O)O)NCCC(C)(C)C [sulfate salt, Sulfate Salt of N-[N-(3,3-dimethylbutyl)-L-α-aspartyl]-L-phenylalanine 1-methyl Ester]
dissolution time in water (visual observation) [1, 8]: less than 20 seconds
aqueous solubility compared to the starting material [7]: greater aqueous solubility compared to the starting material

From patent US6180156A, “Acid salts of N-[N-(3,3-dimethylbutyl)-L-α-aspartyl]-L-phenylalanine 1-methyl ester” (The NutraSweet Company, priority 1998, dated 2001)
